According to paper PMC4413647, “Simultaneous targeting of androgen receptor (AR) and MAPK-interacting kinases (MNKs) by novel retinamides inhibits growth of human prostate cancer cell lines” (Oncotarget, 2014):

What was measured:
Bax, cleaved PARP-1 = experiment: Western blot of Bax and cleaved PARP-1 in PCa cells; format: cell-based, human; conditions: 20 μM, 24 h, among the lead NRs
Method: (§1) Figure 4 Effect of NRs on cell cycle and apoptosis (A) LNCaP cells treated with 5 μM of NRs and other compounds for 24 h were stained with PI and analysed with a FACS calibur flow cytometer. (B) Total cell lysates from PCa cells treated with 20 μM of NRs were separated by SDS-PAGE and probed with cyclin D1 and B antibodies. […] (C) LNCaP cells were treated with indicated compounds (5 μmol/L) for 24 h and apoptosis induction was examined by oligonucleosomal fragmentation. Data are shown relative to vehicle treated control and the bars are means of three replicate determinations plus standard deviations. *, P< 0.01; ♣, P<0.05 compared with vehicle treated control. (D) PCa cells as indicated were seeded in 24 well plate, and treated with 5 μmol/L of NRs the subsequent day. After 24 h the plates were analyzed for apoptotic and viable cells using acridine orange/ethidium bromide staining. (E) Western blot analysis of apoptosis associated Bax and cPARP in PCa cells treated with NRs (20 μmol/L) for 24 h. (F) Apoptosis induction in LNCaP cells treated with 5 μmol/L of VNLG-147 and -152 in the presence or absence of ZVAD (5 μmol/L) was assessed by oligonucleosomal fragmentation after 24 h incubation. *, P< 0.05 compared with vehicle treated control. […]

MR49F cells = experiment: MTT growth inhibition in Enzalutamide resistant MR49F cells; format: cell-based, human; conditions: Homo sapiens, MR49F; read-out: GI50 MR49F (Figure 2C)
Method: Figure 2 Effect of NRs on PCa cell growth and colony formation (A) Representative photographs of colonies formed in PCa cells at 14th day after initial treatment with specified compounds (5 μmol/L). Colonies were fixed with methanol and stained with crystal violet. (B) Data represents the mean ± S.E from three independent experiments. *, P< 0.05; ♣, P<0.01 compared to vehicle treated control. […] NRs that had promising inhibitory effect on cell proliferation on LNCaP cells were tested for their growth inhibitory effect in MR49F cells in comparison with Casodex and Abiraterone acetate by MTT assay.
(§2) Androgen-dependent (LNCaP), androgen-independent (PC-3) and castration resistant (C4-2B and 22Rv1) human prostate carcinoma cells were procured from American Type Culture Collection, Manassas, VA, USA and maintained in RPMI 1640 media (Gibco-Life Technologies, Grand Island, NY, USA) supplemented with 10% fetal bovine serum and 1% penicillin/streptomycin. […] Immortalized untransformed prostate epithelial cells, PWR1E from American Type Culture Collection were maintained in serum-free Keratinocyte media (Gibco) supplemented with epidermal growth factor and bovine pituitary extract. All cell lines were maintained in a 37 °C/5% CO2 humidified atmosphere.
(§3) Cell proliferation assay was performed as described previously. For cell growth experiment, cells were treated with the NRs for 7 days. MTT assay was performed at the end of the experiment. Calculations of combination indices were done using the Calcusyn program (Biosoft, Cambridge, United Kingdom). For colony formation assay, cells were plated 1000 per well in complete media and allowed to adhere for 24 h. The next day cells were treated with indicated compounds (5 μM). After 24 h compound containing media were removed, and cells were allowed to form colonies in complete media. Approximately 2 weeks later the colonies were fixed, stained with 0.5% crystal violet (sigma) for 30 min and counted manually. Results represent the mean ± standard deviation of three independent experiments.

C4-2B cells = experiment: MTT cell proliferation assay, 7 d, C4-2B; format: cell-based; conditions: Homo sapiens, 168 h, 7 d treatment
Excerpt: as §2, §3

PCa cells = experiment: MTT cell viability in PCa cells (LNCaP, PC-3, C4-2B, 22Rv1); format: cell-based, human; conditions: Homo sapiens, range over PCa cell lines
Method: as §3

PC-3 cells = experiment: Boyden chamber matrigel invasion assay; format: cell-based, human; conditions: PC-3, 5 μM, 24 h
Method: Figure 5 Anti-migratory and anti-invasive potential of NRs (A) Effect of NRs treatment (5 μmol/L) on PC-3 cell migration was assessed by wound healing assay after 24 h of wound formation. Representative photomicrographs of initial and final wounds are shown at 100x magnification. (B) Effect of NRs on PC-3 cell invasion was evaluated by transwell migration assay. PC-3 cells were seeded on matrigel coated boyden chamber and treated with NRs (5 μmol/L, 24 h). Photographs represent the extent of cell invasion in each of the treated cells. (C) Western blot analysis of the effect of NRs on the expression of cadherins in PC-3 cells. Cells were treated with indicated compound 20 μmol/L for 24 h.
The invasion assay in PC-3 cells was performed using Matrigel (BD Biosciences, Bedford, MA, USA)-coated transwell cell culture chambers (8 μm pore size, EMD Millipore, Temecula, CA, USA) as described previously (43). Briefly, PC-3 cells (5 × 10^4 cells/well) were cultured in the upper chamber of the transwell insert for 24 h in serum-free RPMI-1640 medium. The cells were then treated with 5 μM of indicated compounds for 24 h. RPMI-1640 medium containing 10% FBS was placed in the lower chamber. At the end of incubation, the top surface of the non-migrated cells were scraped gently with cotton swabs and the cells on the lower surface of the membrane (migrated cells) were fixed for 15 min with cold methanol and stained with crystal violet. Cells that had migrated to the bottom of the membrane were visualized and counted using an inverted microscope. For each replicate (n = 3), cells in three randomly selected fields were counted and averaged.

LNCaP cells = experiment: Cell cycle FACS analysis (PI staining); format: cell-based, human; conditions: 5 μM, 24 h, untreated control 37.1%
Method: as §1, with “(D) PCa cells as indicated were seeded in 24 well plate, and treated with 5 μmol/L of NRs the subsequent day.” left out, “(E) Western blot analysis of apoptosis associated Bax and cPARP in PCa cells treated with NRs (20 μmol/L) for 24 h.” left out
Cells were harvested by trypsinization and then ﬁxed with 70% ethanol for 24 h at 4 °C. […] Stained cells were analyzed with a ﬂow cytometer using FlowJo software that exploits Watson algorithm to find out peak and S-phase populations from a univariate distribution curve.

PWR-1E cells = experiment: MTT cell proliferation assay, 7 d, PWR-1E; format: cell-based; conditions: Homo sapiens, 168 h, immortalized untransformed prostate cells, 7 d treatment
Excerpt: as §2, §3

22Rv1 cells = experiment: MTT cell proliferation assay, 7 d, 22Rv1; format: cell-based; conditions: Homo sapiens, 22Rv1, 168 h, 7 d treatment
Excerpt: as §2, §3

CC1=C(/C=C/C(C)=C/C=C/C(C)=C/C(=O)Nc2ccc(F)cc2)C(C)(C)CCC1n1ccnc1 (racemic) [VNLG-152]
efficacy in inducing PARP cleavage and/or increasing Bax expression (Bax, cleaved PARP-1): greater efficacies
GI50 (MR49F cells): 3.89 µM
GI50 (C4-2B cells): 1.54 µM
GI50 (PCa cells): 1.5 to 5.5 µM
percentage of cell invasion compared to control (PC-3 cells): 13
percentage of cells in G1 phase (LNCaP cells): 74.6%
GI50 (PWR-1E cells): 47.9 µM
GI50 (22Rv1 cells): 3.23 µM
